Data reported in patent US5162333A, “Aminodiesters of rapamycin” (American Home Products Corporation, priority 1991, dated 1992).

Experiments:
[1] = test system: thymocyte proliferation (cells from the thymus of normal BALB/c mice, PHA and IL-1); assay: comitogen-induced thymocyte proliferation procedure (LAF); format: cell-based; conditions: for LAF (ratio): calculation described in b29 (formula not shown)
Description: (§1) Immunosuppressive activity was evaluated in an in vitro standard pharmacological test procedure to measure lymphocyte proliferation (LAF) and in two in vivo standard pharmacological test procedures. The first in vivo procedure was a popliteal lymph node (PLN) test procedure which measured the effect of compounds of this invention on a mixed lymphocyte reaction and the second in vivo procedure evaluated the survival time of a pinch skin graft.
Briefly, cells from the thymus of normal BALB/c mice are cultured for 72 hours with PHA and IL-1 and pulsed with tritiated thymidine during the last six hours. […] Cells are harvested and incorporated; radioactivity is determined. Inhibition of lymphoproliferation is assessed in percent change in counts per minute from non-drug treated controls. The results are expressed by the following ratio, or as the IC50, expressed in nM. [formula]

[2] = test system: mixed lymphocyte reaction in popliteal lymph node; assay: popliteal lymph node (PLN) test procedure, in vivo mixed lymphocyte reaction; parameters: species or system mouse (BALB/c donors, C3H mice recipients); conditions: for PLN (ratio): p.o. daily Day 0 to Day 4, calculation described in b30 (formula not shown)
Description: as §1
A mixed lymphocyte reaction (MLR) occurs when lymphoid cells from genetically distinct animals are combined in tissue culture. Each stimulates the other to undergo blast transformation which results in increased DNA synthesis that can be quantified by the incorporation of tritiated thymidine. Since stimulating a MLR is a function of disparity at Major Histocompatibility antigens, an in vivo popliteal lymph node (PLN) test procedure closely correlates to host vs. graft disease. Briefly, irradiated spleen cells from BALB/c donors are injected into the right hind foot pad of recipient C3H mice. The drug is given daily, p.o. from Day 0 to Day 4. On Day 3 and Day 4, tritiated thymidine is given i.p., b.i.d. On Day 5, the hind popliteal lymph nodes are removed and dissolved, and radioactivity counted. The corresponding left PLN serves as the control for the PLN from the injected hind foot. Percent suppression is calculated using the non-drug treated animals as allogenic control. […] Results are expressed by the following ratio: [formula]

[3] = test system: pinch skin graft from male DBA/2 donors transplanted to male BALB/c recipients; assay: survival time of pinch skin graft; format: in vivo, mouse (DBA/2 donors; conditions: intraperitoneally; days to rejection
Description: as §1
The second in vivo test procedure is designed to determine the survival time of pinch skin graft from male DBA/2 donors transplanted to male BALB/c recipients. The method is adapted from Billingham R. E. and Medawar P. B., J. Exp. Biol. 28:385-402, (1951). Briefly, a pinch skin graft from the donor is grafted on the dorsum of the recipient as a homograft, and an autograft is used as control in the same region. […] Untreated recipients serve as rejection control. The graft is monitored daily and observations are recorded until the graft becomes dry and forms a blackened scab. This is considered as the rejection day. The mean graft survival time (number of days±S.D.) of the drug treatment group is compared with the control group.

Candida albicans = conditions: particularly against Candida albicans, both in vitro and in vivo; cited from earlier work
[4] = test system: experimental allergic encephalomyelitis model, a model for multiple sclerosis; conditions: in vivo; cited from earlier work
[5] = test system: formation of IgE-like antibodies; conditions: cited from earlier work
[6] = test system: organ grafts in histoincompatible rodents; conditions: cited from earlier work

Row | Compound | LAF (ratio) [1] | PLN (ratio) [2] | Skin Graft (mean graft survival time) [3] | IC50 ([1]; Mus musculus, Thymocyte, read-out: LAF IC50) [nM] | Percent suppression in PLN ([2]; 6 mg/kg, p.o., vs non-drug treated allogenic control) [%] | antifungal activity (Candida albicans) | effect in experimental allergic encephalomyelitis model [4] | inhibition of the formation of IgE-like antibodies [5] | survival time of organ grafts [6]
1 | CO[C@H]1C[C@@H]2CC[C@@H](C)[C@@](O)(O2)C(=O)C(=O)N2CCCC[C@H]2C(=O)O[C@H]([C@H](C)C[C@@H]2CC[C@@H](OC(=O)CC[C@H](NC(=O)OCc3ccccc3)C(=O)O[C@@H]3CC[C@@H](C[C@@H](C)[C@@H]4CC(=O)[C@H](C)/C=C(\C)[C@@H](O)[C@@H](OC)C(=O)[C@H](C)C[C@H](C)/C=C/C=C/C=C(\C)[C@@H](OC)C[C@@H]5CC[C@@H](C)[C@@](O)(O5)C(=O)C(=O)N5CCCC[C@H]5C(=O)O4)C[C@H]3OC)[C@H](OC)C2)CC(=O)[C@H](C)/C=C(\C)[C@@H](O)[C@@H](OC)C(=O)[C@H](C)C[C@H](C)/C=C/C=C/C=C/1C [Example 1, Rapamycin-42,42'-diester with N-[(phenylmethoxy)carbonyl]-L-glutamic acid] | 0.53 | 0.45 | 10.2 ± 0.4 days ± SD |  |  |  |  |  | 
2 | CO[C@H]1C[C@@H]2CC[C@@H](C)[C@@](O)(O2)C(=O)C(=O)N2CCCC[C@H]2C(=O)O[C@H]([C@H](C)C[C@@H]2CC[C@@H](OC(=O)C[C@H](NC(=O)OCc3ccccc3)C(=O)O[C@@H]3CC[C@@H](C[C@@H](C)[C@@H]4CC(=O)[C@H](C)/C=C(\C)[C@@H](O)[C@@H](OC)C(=O)[C@H](C)C[C@H](C)/C=C/C=C/C=C(\C)[C@@H](OC)C[C@@H]5CC[C@@H](C)[C@@](O)(O5)C(=O)C(=O)N5CCCC[C@H]5C(=O)O4)C[C@H]3OC)[C@H](OC)C2)CC(=O)[C@H](C)/C=C(\C)[C@@H](O)[C@@H](OC)C(=O)[C@H](C)C[C@H](C)/C=C/C=C/C=C/1C [Example 2, Rapamycin 42-42'-diester with N-[(phenylmethoxycarbonyl)]-L-aspartic acid] | 0.32 | 0.45 | 10.7 ± 0.2 days ± SD |  |  |  |  |  | 
3 | CO[C@H]1C[C@@H]2CC[C@@H](C)[C@@](O)(O2)C(=O)C(=O)N2CCCC[C@H]2C(=O)O[C@H]([C@H](C)C[C@@H]2CC[C@@H](O)[C@H](OC)C2)CC(=O)[C@H](C)/C=C(\C)[C@@H](O)[C@@H](OC)C(=O)[C@H](C)C[C@H](C)/C=C/C=C/C=C/1C [Rapamycin, rapamycin] |  |  | 12.0 ± 1.7 days ± SD | 8.7 | 86 | antifungal activity, particularly against Candida albicans, both in vitro and in vivo | effective | effectively inhibited the formation of IgE-like antibodies | prolong survival time of organ grafts
